From paper PMC9863297, “Intermolecular Interactions of Edaravone in Aqueous Solutions of Ethaline and Glyceline Inferred from Experiments and Quantum Chemistry Computations” (Molecules, 2023)
Converted amounts (≈) assume the structure as drawn. Like-named read-outs stand apart in the source and are kept apart here.

Test: Edaravone solubility, slurry/shake-flask method with spectrophotometric determination at 243 nm
Format: physicochemical
Conditions: for solubility at 24 h: read-out: cE solubility concentration; for volume of saturated solution containing the recommended 60 mg: solubility at 298.15 K
Experimental: The first step in obtaining a calibration curve was the preparation of a stock solution of edaravone with a concentration of 2.3 mg/mL. This initial solution was successfully diluted in 10 mL volumetric flasks with methanol and the obtained solutions with decreasing concentrations were measured spectrophotometrically. […] Three separate curves were obtained, and the final curve resulted from averaging. […] The limits of detection (LOD) and quantification (LOQ) were calculated as 5.899∙10^−4 mg/mL and 1.770∙10^−3 mg/mL, respectively.
All of the studied deep eutectic solvents included choline chloride, while the second constituent was either glycerol or ethylene glycol. In order to prepare a DES formulation, choline chloride was mixed with the second compound in different molar ratios in sealed test tubes and placed in a water bath at 363.15 K until the formation of a uniform solution. The obtained DES were either used in their neat form or water was added to them in different proportions in order to form binary systems.
During the next stage, edaravone was added in excess amounts to the test tubes containing both neat DES and binary mixtures, which enabled us to obtain its saturated solutions. Samples prepared in such a manner were placed in an Orbital Shaker Incubator ES-20/60 from Biosan (Riga, Latvia) and incubated for 24 h at different temperatures, namely 298.15 K, 303.15 K, 308.15 K and 313.15 K. The temperature adjustment accuracy was 0.1 K and its variability in a 24 h cycle was ±0.5 K. Apart from heating, all of the samples were mixed at 60 rev/min. The increased viscosity and density of DES systems required the samples to be centrifuged at 1000 rev/min for 5 min with the use of EBA 20 centrifuge from Hettich (Tuttlingen, Germany) enabling the undissolved precipitate to remain on the bottom of the test tubes. Next, the samples were filtered using a syringe equipped with a PTFE syringe filer with 0.22 µm pore size. In order to avoid precipitation, the test tubes, syringes and filters were initially heated at a temperature equal to the one of the handled samples. Finally, small amounts of the obtained filtrate were transferred to test tubes filled with methanol and the diluted samples were measured spectrophotometrically. Additionally, for the determination of the mole fractions of edaravone, the density of the samples was measured by weighing a fixed volume of the solution in 10 mL volumetric flasks.
For determining the solubility of edaravone in the studied systems, the samples prepared, as described above, were measured spectrophotometrically using an A360 spectrophotometer from AOE Instruments (Shanghai, China). The spectra were recorded in the 190 nm to 500 nm wavelength range and 1 nm resolution. Methanol was used for the initial calibration of the spectrophotometer and for the dilution of the measured samples, which was conducted in order for the absorbance values to remain below 2.5. The absorbance values at 243 nm were taken into account and based on the calibration curve prepared earlier, the concentration of edaravone in the samples was determined, followed by its mole fractions. The values were averaged from three separate measurements.

Compound: CC1=NN(c2ccccc2)C(=O)C1 [edaravone, 5-methyl-2-phenyl-4H-pyrazol-3-one]
- xE mole fraction solubility (neat DES choline chloride + glycerol (GLE) 1:2 molar ratio (x*GLE = 1.0), 303.15 K): 1606.43 (±50.52) mole fraction ∙10^4
- xE mole fraction solubility (neat DES choline chloride + glycerol (GLE) 1:2 molar ratio (x*GLE = 1.0), 308.15 K): 2151.57 (±64.56) mole fraction ∙10^4
- xE mole fraction solubility (neat DES choline chloride + glycerol (GLE) 1:2 molar ratio (x*GLE = 1.0), 313.15 K): 2991.42 (±64.1) mole fraction ∙10^4
- xE mole fraction solubility (neat DES choline chloride + glycerol (GLE) 1:4 molar ratio, 298.15 K): 926.44 (±23.62) mole fraction ∙10^4
- xE mole fraction solubility (neat DES choline chloride + glycerol (GLE) 1:4 molar ratio, 303.15 K): 1321.28 (±36.17) mole fraction ∙10^4
- xE mole fraction solubility (neat DES choline chloride + glycerol (GLE) 1:4 molar ratio, 308.15 K): 1861.97 (±40.45) mole fraction ∙10^4
- xE mole fraction solubility (neat DES choline chloride + glycerol (GLE) 1:4 molar ratio, 313.15 K): 2739.72 (±65.05) mole fraction ∙10^4
- solubility at 24 h (neat deep eutectic solvent, 25 °C, organic solvent or mixture, thermodynamic from solid, neat DES choline chloride + ethylene glycol (ETA) 1:1 molar ratio, 298.15 K): 190 mg/mL
- solubility at 24 h (neat deep eutectic solvent, 25 °C, organic solvent or mixture, thermodynamic from solid, neat DES choline chloride + ethylene glycol (ETA) 1:2 molar ratio (x*ETA = 1.0), 298.15 K): 303 mg/mL
- solubility at 24 h (neat deep eutectic solvent, 25 °C, organic solvent or mixture, thermodynamic from solid, neat DES choline chloride + ethylene glycol (ETA) 1:4 molar ratio, 298.15 K): 280 mg/mL
- solubility at 24 h (neat deep eutectic solvent, 25 °C, organic solvent or mixture, thermodynamic from solid, neat DES choline chloride + glycerol (GLE) 1:1 molar ratio, 298.15 K): 138 mg/mL
- solubility at 24 h (neat deep eutectic solvent, 30 °C, organic solvent or mixture, thermodynamic from solid, neat DES choline chloride + ethylene glycol (ETA) 1:1 molar ratio, 303.15 K): 252 mg/mL
- solubility at 24 h (neat deep eutectic solvent, 30 °C, organic solvent or mixture, thermodynamic from solid, neat DES choline chloride + ethylene glycol (ETA) 1:2 molar ratio (x*ETA = 1.0), 303.15 K): 392 mg/mL
- solubility at 24 h (neat deep eutectic solvent, 30 °C, organic solvent or mixture, thermodynamic from solid, neat DES choline chloride + ethylene glycol (ETA) 1:4 molar ratio, 303.15 K): 347 mg/mL
- solubility at 24 h (neat deep eutectic solvent, 35 °C, organic solvent or mixture, thermodynamic from solid, neat DES choline chloride + ethylene glycol (ETA) 1:1 molar ratio, 308.15 K): 360 mg/mL
- solubility at 24 h (neat deep eutectic solvent, 35 °C, organic solvent or mixture, thermodynamic from solid, neat DES choline chloride + ethylene glycol (ETA) 1:2 molar ratio (x*ETA = 1.0), 308.15 K): 499 mg/mL
- solubility at 24 h (neat deep eutectic solvent, 35 °C, organic solvent or mixture, thermodynamic from solid, neat DES choline chloride + ethylene glycol (ETA) 1:4 molar ratio, 308.15 K): 467 mg/mL
- solubility at 24 h (neat deep eutectic solvent, 40 °C, organic solvent or mixture, thermodynamic from solid, neat DES choline chloride + ethylene glycol (ETA) 1:1 molar ratio, 313.15 K): 484 mg/mL
- solubility at 24 h (neat deep eutectic solvent, 40 °C, organic solvent or mixture, thermodynamic from solid, neat DES choline chloride + ethylene glycol (ETA) 1:2 molar ratio (x*ETA = 1.0), 313.15 K): 593 mg/mL
- solubility at 24 h (neat deep eutectic solvent, 40 °C, organic solvent or mixture, thermodynamic from solid, neat DES choline chloride + ethylene glycol (ETA) 1:4 molar ratio, 313.15 K): 602 mg/mL
- xE mole fraction solubility (neat water (x*DES = 0.0), 298.15 K): 1.73(±0.01) mole fraction ∙10^4
- xE mole fraction solubility (neat water (x*DES = 0.0), 303.15 K): 1.78(±0.01) mole fraction ∙10^4
- xE mole fraction solubility (neat water (x*DES = 0.0), 308.15 K): 1.84(±0.02) mole fraction ∙10^4
- xE mole fraction solubility (neat water (x*DES = 0.0), 313.15 K): 1.93(±0.01) mole fraction ∙10^4
- mole fraction solubility ratio, ethylene glycol system vs glycerol system (optimal 1:2 composition, average over temperatures): 1.34 times
- volume of saturated solution containing the recommended 60 mg (optimal aqueous composition ETA): 0.14 mL
- volume of saturated solution containing the recommended 60 mg (optimal aqueous composition GLE): 0.18 mL
- solubility increase in optimal binary composition compared to neat DES (systems with ethylene glycol, x*DES = 0.6, average): 17%
- xE mole fraction solubility (water + ETA (ChCl:EG 1:2), x*ETA = 0.2, 298.15 K): 454.10(±5.48) mole fraction ∙10^4
- xE mole fraction solubility (water + ETA (ChCl:EG 1:2), x*ETA = 0.2, 303.15 K): 574.18(±8.89) mole fraction ∙10^4
- xE mole fraction solubility (water + ETA (ChCl:EG 1:2), x*ETA = 0.2, 308.15 K): 742.26(±18.45) mole fraction ∙10^4
- xE mole fraction solubility (water + ETA (ChCl:EG 1:2), x*ETA = 0.2, 313.15 K): 890.33(±10.84) mole fraction ∙10^4
- xE mole fraction solubility (water + ETA (ChCl:EG 1:2), x*ETA = 0.4, 298.15 K): 1353.93(±5.00) mole fraction ∙10^4
- xE mole fraction solubility (water + ETA (ChCl:EG 1:2), x*ETA = 0.4, 303.15 K): 1819.02(±41.45) mole fraction ∙10^4
- xE mole fraction solubility (water + ETA (ChCl:EG 1:2), x*ETA = 0.4, 308.15 K): 2386.29(±27.09) mole fraction ∙10^4
- xE mole fraction solubility (water + ETA (ChCl:EG 1:2), x*ETA = 0.4, 313.15 K): 2954.32(±49.04) mole fraction ∙10^4
- xE mole fraction solubility (water + ETA (ChCl:EG 1:2), x*ETA = 0.5, 298.15 K): 1754.56(±31.02) mole fraction ∙10^4
- xE mole fraction solubility (water + ETA (ChCl:EG 1:2), x*ETA = 0.5, 303.15 K): 2316.25(±38.27) mole fraction ∙10^4
- xE mole fraction solubility (water + ETA (ChCl:EG 1:2), x*ETA = 0.5, 308.15 K): 3073.71(±53.04) mole fraction ∙10^4
- xE mole fraction solubility (water + ETA (ChCl:EG 1:2), x*ETA = 0.5, 313.15 K): 3822.75(±61.93) mole fraction ∙10^4
- xE mole fraction solubility (water + ETA (ChCl:EG 1:2), x*ETA = 0.6, 298.15 K): 1934.93(±34.18) mole fraction ∙10^4
- xE mole fraction solubility (water + ETA (ChCl:EG 1:2), x*ETA = 0.6, 303.15 K): 2552.36(±52.56) mole fraction ∙10^4
- xE mole fraction solubility (water + ETA (ChCl:EG 1:2), x*ETA = 0.6, 308.15 K): 3306.79(±48.29) mole fraction ∙10^4
- xE mole fraction solubility (water + ETA (ChCl:EG 1:2), x*ETA = 0.6, 313.15 K): 3982.72(±70.26) mole fraction ∙10^4
- xE mole fraction solubility (water + ETA (ChCl:EG 1:2), x*ETA = 0.8, 298.15 K): 1713.96(±31.15) mole fraction ∙10^4
- xE mole fraction solubility (water + ETA (ChCl:EG 1:2), x*ETA = 0.8, 303.15 K): 2241.64(±42.78) mole fraction ∙10^4
- xE mole fraction solubility (water + ETA (ChCl:EG 1:2), x*ETA = 0.8, 308.15 K): 2989.20(±42.33) mole fraction ∙10^4
- xE mole fraction solubility (water + ETA (ChCl:EG 1:2), x*ETA = 0.8, 313.15 K): 3720.80(±28.54) mole fraction ∙10^4
- xE mole fraction solubility (water + GLE (ChCl:GL 1:2), x*GLE = 0.2, 298.15 K): 235.51(±9.67) mole fraction ∙10^4
- xE mole fraction solubility (water + GLE (ChCl:GL 1:2), x*GLE = 0.2, 303.15 K): 309.2(±4.30) mole fraction ∙10^4
- xE mole fraction solubility (water + GLE (ChCl:GL 1:2), x*GLE = 0.2, 308.15 K): 435.07(±4.04) mole fraction ∙10^4
- xE mole fraction solubility (water + GLE (ChCl:GL 1:2), x*GLE = 0.2, 313.15 K): 564.61(±7.05) mole fraction ∙10^4
- xE mole fraction solubility (water + GLE (ChCl:GL 1:2), x*GLE = 0.4, 298.15 K): 743.88(±5.92) mole fraction ∙10^4
- xE mole fraction solubility (water + GLE (ChCl:GL 1:2), x*GLE = 0.4, 303.15 K): 1116.64(±2.70) mole fraction ∙10^4
- xE mole fraction solubility (water + GLE (ChCl:GL 1:2), x*GLE = 0.4, 308.15 K): 1444.07(±14.86) mole fraction ∙10^4
- xE mole fraction solubility (water + GLE (ChCl:GL 1:2), x*GLE = 0.4, 313.15 K): 2014.09(±17.34) mole fraction ∙10^4
- xE mole fraction solubility (water + GLE (ChCl:GL 1:2), x*GLE = 0.5, 298.15 K): 1121.47(±10.85) mole fraction ∙10^4
- xE mole fraction solubility (water + GLE (ChCl:GL 1:2), x*GLE = 0.5, 303.15 K): 1673.69(±20.61) mole fraction ∙10^4
- xE mole fraction solubility (water + GLE (ChCl:GL 1:2), x*GLE = 0.5, 308.15 K): 2236.41(±28.00) mole fraction ∙10^4
- xE mole fraction solubility (water + GLE (ChCl:GL 1:2), x*GLE = 0.5, 313.15 K): 3065.17(±55.82) mole fraction ∙10^4
- xE mole fraction solubility (water + GLE (ChCl:GL 1:2), x*GLE = 0.6, 298.15 K): 1450.22(±11.26) mole fraction ∙10^4
- xE mole fraction solubility (water + GLE (ChCl:GL 1:2), x*GLE = 0.6, 303.15 K): 2089.77(±58.10) mole fraction ∙10^4
- xE mole fraction solubility (water + GLE (ChCl:GL 1:2), x*GLE = 0.6, 308.15 K): 2723.73(±61.99) mole fraction ∙10^4
- xE mole fraction solubility (water + GLE (ChCl:GL 1:2), x*GLE = 0.6, 313.15 K): 3567.08(±42.51) mole fraction ∙10^4
- xE mole fraction solubility (water + GLE (ChCl:GL 1:2), x*GLE = 0.8, 298.15 K): 1305.70(±26.15) mole fraction ∙10^4
- xE mole fraction solubility (water + GLE (ChCl:GL 1:2), x*GLE = 0.8, 303.15 K): 1852.98(±39.43) mole fraction ∙10^4
- xE mole fraction solubility (water + GLE (ChCl:GL 1:2), x*GLE = 0.8, 308.15 K): 2525.56(±24.65) mole fraction ∙10^4
- xE mole fraction solubility (water + GLE (ChCl:GL 1:2), x*GLE = 0.8, 313.15 K): 3420.95(±31.16) mole fraction ∙10^4
- solubility at 24 h (water, neat water (x*DES = 0.0), 298.15 K): 1.72 mg/mL (≈ 9.87 mM)
- solubility at 24 h (water, neat water (x*DES = 0.0), 303.15 K): 1.79 mg/mL (≈ 10.3 mM)
- solubility at 24 h (water, neat water (x*DES = 0.0), 308.15 K): 1.87 mg/mL (≈ 10.7 mM)
- solubility at 24 h (water, neat water (x*DES = 0.0), 313.15 K): 1.96 mg/mL (≈ 11.3 mM)
